Data from paper PMC9465178, “Cinnamaldehyde derivatives act as antimicrobial agents against Acinetobacter baumannii through the inhibition of cell division” (Frontiers in Microbiology, 2022).
Converted amounts (≈) assume the structure as drawn. “Also recorded” adds a separate entry of the source.

Experiments:
A. baumannii XDR UW 5075 [1] = assay: Checkerboard titration MIC with efflux pump inhibitor PAβN; assay type: cell-based, Acinetobacter baumannii; conditions: for MIC in combination with PAβN: PAβN concentration not given in the sentence
Experimental: (§1) To determine if expression of efflux pumps would play a role in the efflux of the cinnamaldehyde derivatives leading to poor antimicrobial activity, interactions between PAβN and the LXC compounds were assessed by checkerboard titration assay. The checkerboard titration assay was performed as previously described ([Chai et al., 2020]). Briefly, PAβN was added in the first row and serially diluted in CaMH broth along the ordinate of the microwell plate while the LXC compounds were serially diluted along the abscissa. Bacterial suspension for A. baumannii ATCC 19606 or AB UW 5075 100 μL/well were added as described for the MIC assay. Bacterial growth was assessed at A600 nm between time 0 and 18 h (Cytation5® Cell Imaging Multi-Mode Reader, Bio-Tek®).

A. baumannii XDR UW 5075 [2] = assay: MIC, microbroth dilution (EUCAST); assay type: cell-based, Acinetobacter baumannii; conditions: Acinetobacter baumannii, XDRUW5075, 18 h
Experimental: (§2) Reference bacterial strains were obtained from the American Type Culture Collection (ATCC). Vancomycin resistant Enterococcus faecium (VRE 734, wastewater isolate from the Venter Laboratory Collection) was isolated on Bile Esculin agar (Oxoid, Australia) containing 6 μg/mL vancomycin and identified using MALDI-TOF mass spectrometry (Bruker, Preston, Victoria, Australia, Australian Center for Antimicrobial Resistance Ecology). The Pseudomonas aeruginosa WT PAO1 and Escherichia coli with deletions of both acrA and acrB genes encoding drug efflux pumps were obtained from the Venter laboratory stock ([Welch et al., 2010]). The protocol for microbial growth was adopted from the European Committee on Antimicrobial Susceptibility Testing (EUCAST) ([European Committee for Antimicrobial Susceptibility Testing, 2016]).
(§3) Non-fastidious bacteria and clinical isolates were maintained in Mueller Hinton (MH) broth (Acumedia, United Kingdom) supplemented with 15% (v/v) glycerol (Chem-Supply, Australia), cultured on Mueller Hinton (MH) agar (Acumedia, United Kingdom) plated and incubated at 37°C. Fastidious bacteria were maintained in Brain Heart Infusion (BHI) broth (Acumedia, United Kingdom) supplemented with 15% (v/v) glycerol at −80°C. The fastidious bacteria were cultured on MH agar plates supplemented with 5% (v/v) lysed horse blood and 3% (v/v) fetal bovine serum and incubated at 30°C in the presence of 5% CO2. Drug susceptibility assays were carried out with the non-fastidious cultures grown in cation-adjusted Mueller Hinton (CaMH) broth (Becton Dickinson, France). Streptococcus pyogenes was grown in CaMH broth supplemented with 5% (v/v) lysed horse blood and 3% (v/v) fetal bovine serum whereas Enterococcus faecium was grown in BHI broth.
(§4) The minimum inhibitory concentrations (MICs) for all six compounds were determined using the microbroth dilution protocol as per EUCAST with an inoculum of approximately […] in an exponential growth phase ([European Committee for Antimicrobial Susceptibility Testing, 2016]). Bacterial suspension, 100 μL/well, was added to 100 μL/well of drug dilutions, then incubated for 18 h at 37°C. Fastidious bacterial suspensions were instead incubated at 30°C in the presence of 5% CO2. Bacterial growth was assessed by measuring the change in A600 nm between time 0 and 18 h (Cytation5® Cell Imaging Multi-Mode Reader, Bio-Tek®). Levofloxacin was used as the positive control. Assays were completed in duplicate in at least three independent experiments.

A. baumannii ATCC 19606 [3] = assay: MIC, microbroth dilution (EUCAST); assay type: cell-based, Acinetobacter baumannii; conditions: Acinetobacter baumannii, ATCC19606, 18 h
Experimental: as §2, §3, §4

A. baumannii ATCC 19606 [4] = assay: Checkerboard titration MIC with efflux pump inhibitor PAβN; assay type: cell-based; conditions: Acinetobacter baumannii, ATCC19606, A. baumannii ATCC 19606
Experimental: as §1

[5] = tested on: Klebsiella pneumoniae ATCC 4352; assay: Antibacterial activity (MIC), microbroth dilution; assay type: cell-based; conditions: Klebsiella pneumoniae, ATCC4352, read-out: Antibacterial activity (MIC)
Experimental: as §2, §3, §4

[6] = tested on: Pseudomonas aeruginosa WT PAO1; assay: Antibacterial activity (MIC), microbroth dilution; assay type: cell-based; conditions: Pseudomonas aeruginosa, PAO1, read-out: Antibacterial activity (MIC)
Experimental: as §2, §3, §4

[7] = tested on: Streptococcus pyogenes ATCC 10389; assay: Antibacterial activity (MIC), microbroth dilution; assay type: cell-based; conditions: Streptococcus pyogenes, ATCC10389, read-out: Antibacterial activity (MIC)
Experimental: as §2, §3, §4

[8] = tested on: Escherichia coli ATCC 35218; assay: Antibacterial activity (MIC), microbroth dilution; assay type: cell-based; conditions: Escherichia coli, ATCC35218, read-out: Antibacterial activity (MIC)
Experimental: as §2, §3, §4

[9] = tested on: Pseudomonas aeruginosa ATCC 27853; assay: Antibacterial activity (MIC), microbroth dilution; assay type: cell-based; conditions: Pseudomonas aeruginosa, ATCC27853, read-out: Antibacterial activity (MIC)
Experimental: as §2, §3, §4

[10] = tested on: Methicillin resistant Staphylococcus aureus; assay: Antibacterial activity (MIC), microbroth dilution; assay type: cell-based; conditions: Staphylococcus aureus, ATCC 43300 / MRSA, read-out: Antibacterial activity (MIC)
Experimental: as §2, §3, §4

[11] = tested on: Klebsiella pneumoniae ATCC 33495; assay: Antibacterial activity (MIC), microbroth dilution; assay type: cell-based; conditions: Klebsiella pneumoniae, ATCC33495, read-out: Antibacterial activity (MIC)
Experimental: as §2, §3, §4

mammalian tubulin = target: T1, mammalian tubulin (Sus scrofa, UniProt P02550+P02554); assay: Mammalian tubulin polymerization assay kit; assay type: biochemical, porcine; conditions: compounds at 1 × MIC, 1 mM GTP, 37°C
T1 construct: purchased Cytoskeleton Inc. BK011P
T1 sequence (P02550 whole entry): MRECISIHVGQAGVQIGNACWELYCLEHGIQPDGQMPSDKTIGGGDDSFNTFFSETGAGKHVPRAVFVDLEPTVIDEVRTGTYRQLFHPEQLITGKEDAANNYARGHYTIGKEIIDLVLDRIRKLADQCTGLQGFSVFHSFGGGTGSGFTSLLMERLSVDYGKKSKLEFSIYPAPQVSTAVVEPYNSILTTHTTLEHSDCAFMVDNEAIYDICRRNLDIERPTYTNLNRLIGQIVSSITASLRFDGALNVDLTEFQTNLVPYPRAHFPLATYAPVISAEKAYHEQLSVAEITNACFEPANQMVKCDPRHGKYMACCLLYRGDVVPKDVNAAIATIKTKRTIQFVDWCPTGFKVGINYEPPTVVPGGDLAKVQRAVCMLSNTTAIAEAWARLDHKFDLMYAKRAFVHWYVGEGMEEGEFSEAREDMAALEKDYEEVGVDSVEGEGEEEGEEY
T1 sequence (P02554 whole entry): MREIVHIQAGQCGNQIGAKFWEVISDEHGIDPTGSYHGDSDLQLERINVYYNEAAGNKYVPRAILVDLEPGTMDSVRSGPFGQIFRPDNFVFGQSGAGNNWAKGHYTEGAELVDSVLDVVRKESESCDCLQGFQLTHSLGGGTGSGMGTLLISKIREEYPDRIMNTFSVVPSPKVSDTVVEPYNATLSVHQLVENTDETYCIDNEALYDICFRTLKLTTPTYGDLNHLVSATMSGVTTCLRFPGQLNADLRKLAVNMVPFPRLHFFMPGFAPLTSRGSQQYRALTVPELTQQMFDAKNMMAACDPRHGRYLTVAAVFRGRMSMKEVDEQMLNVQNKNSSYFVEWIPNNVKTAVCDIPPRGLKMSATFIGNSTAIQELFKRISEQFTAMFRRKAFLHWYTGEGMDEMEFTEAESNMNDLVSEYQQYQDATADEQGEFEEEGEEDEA
Experimental: The effects of the cinnamaldehyde analogs were analyzed for off-target effects on mammalian tubulin using the protocol as previously described ([Chai et al., 2020]), using a Tubulin Polymerization Assay Kit (Cytoskeleton Inc., BK011P, Denver, CO, United States), following the protocol described by the manufacturer.
Controls included 20 μM paclitaxel (promoter of polymerization), 20 μM vinblastine (inhibitor of polymerization) and 2.5% (v/v) DMSO (solvent control). The reaction was initiated by the addition of 1 mM GTP at 37°C. The fluorescence was read for 2,000 s using PerkinElmer Enspire® plate reader.
FIGURE 7 The effect of the LXC compounds on the polymerization of mammalian tubulin. (A–F) The polymerizing activity of the LXC compounds on porcine tubulin was assessed using a commercial Tubulin Polymerization Assay Kit. The LXC compounds at 1 × MIC were pre-incubated with tubulin on ice before the reaction was initiated by the addition of 1 mM GTP. The fluorescence was measured as a function of time at A360 and A420 nm excitation and emission wavelengths, respectively, at the constant temperature of 37°C. DMSO 2.5% (v/v) (brown curves) was used as vehicle control while paclitaxel (polymerization stabilizer; blue curves) and vinblastine (polymerization inhibitor; green curves) at 20 μM each were also included as controls.

[12] = A. baumannii XDR UW 5075, +PAβN 50 μg/mL
[13] = Acinetobacter baumannii, XDRUW5075
[14] = Acinetobacter baumannii, XDRUW5075, A. baumannii XDR UW 5075, +PAβN 100 μg/mL, read-out: MIC
[15] = Acinetobacter baumannii, XDRUW5075, A. baumannii XDR UW 5075, +PAβN 200 μg/mL, read-out: MIC

Row | Structure (SMILES) | MIC (A. baumannii XDR UW 5075 [1]; [12]) [µg/mL] | MIC (A. baumannii XDR UW 5075 [1]; [13]) [µg/mL] | MIC (A. baumannii XDR UW 5075 [1]; [14]) [µg/mL] | MIC (A. baumannii XDR UW 5075 [1]; [15]) [µg/mL] | MIC (A. baumannii XDR UW 5075 [2]) [µg/mL] | MIC (A. baumannii ATCC 19606 [3]) [µg/mL] | MIC (A. baumannii ATCC 19606 [4]; +PAβN 0 μg/mL) [µg/mL] | MIC (A. baumannii ATCC 19606 [4]; +PAβN 50 μg/mL) [µg/mL] | MIC (A. baumannii ATCC 19606 [4]; +PAβN 100 μg/mL) [µg/mL] | MIC (A. baumannii ATCC 19606 [4]; +PAβN 200 μg/mL) [µg/mL] | MIC [5] [µg/mL] | MIC [6] [µg/mL] | MIC [7] [µg/mL] | MIC [8] [µg/mL] | MIC [9] [µg/mL] | MIC [10] [µg/mL] | MIC [11] [µg/mL] | Effect on tubulin polymerization (mammalian tubulin) | MIC in combination with PAβN (A. baumannii XDR UW 5075 [1]; A. baumannii XDR UW 5075) [µg/mL]
1 | Cc1nc2ccccc2n1C(=O)/C=C/c1ccccc1 [Compound 1] | >128 | > 128 | 128 | 64 | > 128 | 128 (≈ 488 µM) | 128 | 128 | 64 | 32 | > 256 | 256 (≈ 976 µM) | > 256 | > 256 | > 256 | 256 (≈ 976 µM) | > 256 | undesirable inhibitory activity | –
2 | Cc1nc2ccccc2n1C(=O)/C=C/c1ccc(F)cc1 [Compound 2] | >128 | > 128 | 64 | 64 | > 128 | 128 (≈ 457 µM) | 128 | 128 | 32 | 16 | > 256 | 256 (≈ 913 µM) | > 256 | > 256 | > 256 | > 256 | > 256 | devoid of tubulin polymerization activity | –
3 | Cc1nc2ccccc2n1C(=O)/C=C/c1ccc(Cl)cc1 [Compound 3] | >128 | > 128 | 128 | 64 | > 128 | 128 (≈ 431 µM) | 128 | 128 | 8 | 8 | > 256 | > 256 | > 256 | > 256 | > 256 | > 256 | > 256 | undesirable inhibitory activity | –
4 | Cc1nc2ccccc2n1C(=O)/C=C/c1ccc(Br)cc1 [Compound 4] | >128 | > 128 | 128 | 64 | > 128 | 32 (≈ 93.8 µM) | 32 | 32 | 8 | 8 | > 256 | > 256 | > 256 | > 256 | 256 (≈ 750 µM) | > 256 | > 256 | undesirable inhibitory activity against tubulin | –
5 | COc1ccc(/C=C/C(=O)n2c(C)nc3ccccc32)cc1OC [Compound 5] | >128 | > 128 | 64 | 32 | > 128 | 256 (≈ 794 µM) | 256 | 128 | 8 | 8 | > 256 | > 256 | > 256 | > 256 | > 256 | > 256 | > 256 | devoid of tubulin polymerization activity | 32
6 | Cc1nc2ccccc2n1C(=O)/C=C/c1ccc(Cl)cc1Cl [Compound 6] | >128 | > 128 | 32 | 32 | > 128 | 64 (≈ 193 µM) | 64 | 32 | 16 | 8 | > 256 | 256 (≈ 773 µM) | > 256 | > 256 | > 256 | 64 (≈ 193 µM) | > 256 | devoid of tubulin polymerization activity; also recorded: lack of activity against the tubulin counter-target | 32
